Test results reported in patent publication US7160888B2, “[1,8]naphthyridin-2-ones and related compounds for the treatment of schizophrenia” (Warner Lambert Company LLC, priority 2003, dated 2007).

target: D2 receptor (Homo sapiens, UniProt P14416); experiment: [3H]Thymidine uptake assay for D2 intrinsic activity; assay type: cell-based; conditions: Table 1; test compound 1 μM; 1 μM Quinpirole = 100% intrinsic activity
Sequence (P14416 whole entry): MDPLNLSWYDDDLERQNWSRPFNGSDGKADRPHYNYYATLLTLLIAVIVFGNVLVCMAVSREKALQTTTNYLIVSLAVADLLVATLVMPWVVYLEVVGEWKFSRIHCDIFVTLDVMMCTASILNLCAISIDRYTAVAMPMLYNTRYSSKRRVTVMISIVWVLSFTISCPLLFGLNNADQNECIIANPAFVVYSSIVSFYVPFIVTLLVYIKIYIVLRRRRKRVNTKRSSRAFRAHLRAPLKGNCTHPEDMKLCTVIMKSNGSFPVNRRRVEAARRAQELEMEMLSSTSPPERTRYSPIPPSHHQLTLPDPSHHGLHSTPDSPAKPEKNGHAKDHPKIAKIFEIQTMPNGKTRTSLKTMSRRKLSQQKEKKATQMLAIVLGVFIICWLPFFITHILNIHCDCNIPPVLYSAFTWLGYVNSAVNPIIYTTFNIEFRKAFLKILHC

Row | Structure (SMILES) | Emax at 1 µM
1 | O=C1CCc2cccc(N3CCN(CCCCOc4ccc5ccc(=O)[nH]c5n4)CC3)c2C1 [Example B40, 7-{4-[4-(7-Oxo-5,6,7,8-tetrahydro-naphthalen-1-yl)-piperazin-1-yl]-butoxy}-1H-[1,8]naphthyridin-2-one] | 36%
2 | O=c1ccc2ccc(OCCCCN3CCN(c4cccc5c4CCCC5(F)F)CC3)nc2[nH]1 [Example B43, 7-{4-[4-(5,5-Difluoro-5 6,7,8-tetrahydro-naphthalen-1-yl)-piperazin-1-yl]-butoxy}-1H-[1,8]naphthyridin-2-one] | 18%
3 | O=C1CCc2cccc(N3CCN(CCCCOc4ccc5ccc(=O)[nH]c5n4)CC3)c21 [Example B44, 7-{4-[4-(3-Oxo-indan-4-yl)-piperazin-1-yl]-butoxy}-1H-[1,8]naphthyridin-2-one] | 27%
4 | O=c1ccc2ccc(OCCCCN3CCN(c4cccc5c4CC(F)(F)C5)CC3)nc2[nH]1 [Example B46, 7-{4-[4-(2,2-Difluoro-indan-4-yl)-piperazin-1-yl]-butoxy}-1H-[1,8]naphthyridin-2-one] | 29%
5 | O=c1ccc2ccc(OCCCCN3CCN(c4cccc5ccccc45)CC3)nc2[nH]1 [Example B47, 7-[4-(4-Naphthalen-1-yl-piperazin-1-yl)-butoxy]-1H-[1,8]naphthyridin-2-one] | 44%
6 | O=c1ccc2ccc(OCCCCN3CCN(c4cccc5cccc(F)c45)CC3)nc2[nH]1 [Example B50, 7-{4-[4-(8-Fluoro-naphthalen-1-yl)-piperazin-1-yl]-butoxy}-1H-[1,8]naphthyridin-2-one] | 51%
7 | O=c1ccc2ccc(OCCCCN3CCN(c4cccc5c(F)cccc45)CC3)nc2[nH]1 [Example B51, 7-{4-[4-(5-Fluoro-naphthalen-1-yl)-piperazin-1-yl]-butoxy}-1H-[1,8]naphthyridin-2-one] | 36%
8 | O=c1ccc2ccc(OCCCCN3CCN(c4ccc(F)c5ccccc45)CC3)nc2[nH]1 [Example B52, 7-{4-[4-(4-Fluoro-naphthalen-1-yl)-piperazin-1-yl]-butoxy}-1H-[1,8]naphthyridin-2-one] | 17%
9 | O=c1ccc2ccc(OCCCCN3CCN(c4c(F)ccc5ccccc45)CC3)nc2[nH]1 [Example B54, 7-{4-[4-(2-Fluoro-naphthalen-1-yl)-piperazin-1-yl]-butoxy}-1H-[1,8]naphthyridin-2-one] | 15%
10 | O=c1ccc2ccc(OCCCCN3CCN(c4cccc5ccc(Cl)cc45)CC3)nc2[nH]1 [Example B56, 7-{4-[4-(7-Chloro-naphthalen-1-yl)-piperazin-1-yl]-butoxy}-1H-[1,8]naphthyridin-2-one] | 28%
11 | O=c1ccc2ccc(OCCCCN3CCN(c4cccc5cc(Cl)ccc45)CC3)nc2[nH]1 [Example B57, 7-{4-[4-(6-Chloro-naphthalen-1-yl)-piperazin-1-yl]-butoxy}-1H-[1,8]naphthyridin-2-one] | 21%
12 | O=c1ccc2ccc(OCCCCN3CCN(c4cccc5c(Cl)cccc45)CC3)nc2[nH]1 [Example B58, 7-{4-[4-(5-Chloro-naphthalen-1-yl)-piperazin-1-yl]-butoxy}-1H-[1,8]naphthyridin-2-one] | 42%

same assay, conditions: Table 2; test compound 1 μM; 1 μM Quinpirole = 100% intrinsic activity

Row | Structure (SMILES) | Emax at 1 µM
13 | CN1C(=O)CCc2cccc(N3CCN(CCCCOc4ccc5ccc(=O)[nH]c5n4)CC3)c21 [Example B38′, 7-{4-[4-(1-Methyl-2-oxo-1,2,3,4-tetrahydro-quinolin-8-yl)-piperazin-1-yl]-butoxy}-1H-[1,8]naphthyridin-2-one] | 46%
14 | O=c1ccc2ccc(OCCCCN3CCN(c4cccc5nonc45)CC3)nc2[nH]1 [Example B39′, 7-[4-(4-Benzo[1,2,5]oxadiazol-4-yl-piperazin-1-yl)-butoxy]-1H-[1,8]naphthyridin-2-one] | 29%
15 | O=c1ccc2ccc(OCCCCN3CCN(c4cccc5nsnc45)CC3)nc2[nH]1 [Example B40′, 7-[4-(4-Benzo[1,2,5]thiadiazol-4-yl-piperazin-1-yl)-butoxy]-1H-[1,8]naphthyridin-2-one] | 49%
